This is an account of results in US20200148646A1, “6-S[…] 7-S[…] ANALOGS AND THE USE THEREOF” (Purdue Pharma, L.P., priority 2013, published 2020).

Some results are limits rather than exact numbers.

In test [1] the target is human κ opioid receptor (Homo sapiens, UniProt P41145). The test is described as follows: κ-opioid receptor [35S]GTPγS functional assay, U-2 OS cells. Type of test: biochemical. The arrangement: expressed in transfected cells; host or cells: U-2 OS cells (in-house membranes). As to conditions: for Emax: U2-OS cells, relative to U69,593. As for the experimental part:
Membranes from recombinant HEK-293 cells, CHO or U-2 OS cells expressing the recombinant human K opioid receptor (K) were prepared by lysing cells in ice cold hypotonic buffer (2.5 mM MgCl2, 50 mM HEPES, pH 7.4) (10 mL/10 cm dish) followed by homogenization with a tissue grinder/Teflon pestle. Functional [^35S]GTPγS binding assays were conducted as follows. K opioid receptor membrane solution was prepared by sequentially adding final concentrations of 0.026 μg/μl κ membrane protein (in-house), 10 μg/mL saponin, 3 μM GDP and 0.20 nM [^35S]GTPγS to binding buffer (100 mM NaCl, 10 mM MgCl2, 20 mM HEPES, pH 7.4) on ice. The prepared membrane solution (190 μl/well) was transferred to 96-shallow well polypropylene plates containing 10 μl of 20× concentrated stock solutions of agonist prepared in DMSO. Plates were incubated for 30 min at a temperature of about 25° C. with shaking. Reactions were terminated by rapid filtration onto 96-well Unifilter GF/B filter plates (Perkin Elmer, Shelton, Conn.) using a 96-well tissue harvester (Packard) and followed by three filtration washes with 200 μl ice-cold binding buffer (10 mM NaH2PO4, 10 mM Na2HPO4, pH 7.4). Filter plates were subsequently dried at 50° C. for 2-3 hours. Fifty μl/well scintillation cocktail (Perkin Elmer, Shelton, Conn.) was added and plates were counted in a Packard Top-Count for 1 min/well.
κ GTP EC50 is the concentration of a compound providing 50% of the maximal response for the compound at a κ receptor.
κ GTP Emax (%) is the maximal effect elicited by a compound relative to the effect elicited by U69,593.
(§1) In TABLE 2A, activity response of certain Compounds of the Invention at the μ- and κ-opioid receptors using U-2 OS cells was determined as described above for functional assays.
On the technique in general: GTPγS resists hydrolysis and so accumulates on activated G proteins.

For test [2], the target named is μ-opioid receptor (Homo sapiens, UniProt P35372). In words: μ-opioid receptor [35S]GTPγS functional assay, U-2 OS cells. It counts as biochemical. The arrangement: host or cells: U-2 OS cells. As to conditions: for Emax: U2-OS cells, relative to DAMGO. As for the experimental part: [^35S]GTPγS functional assays were conducted using freshly thawed μ-receptor membranes prepared in-house from a cell line expressing recombinant opioid receptor in a HEK-293, CHO or U-2 OS cell background, or purchased from a commercial source (Perkin Elmer, Shelton, Conn.; or DiscovRx, Fremont, Calif.). Assay reactions were prepared by sequentially adding the following reagents to binding buffer (100 mM NaCl, 10 mM MgCl2, 20 mM HEPES, pH 7.4) on ice (final concentrations indicated): membrane protein (0.026 mg/mL), saponin ([…]), GDP ([…]) and [^35S]GTPγS (0.20 nM; Perkin Elmer, Shelton, Conn.). The prepared membrane solution (190 l/well) was transferred to 96-shallow well polypropylene plates containing 10 μl of 20× concentrated stock solutions of the agonist [D-Ala^2, N-methyl-Phe^4 Gly-ol^5]-enkephalin (DAMGO) prepared in dimethyl sulfoxide (DMSO). Plates were incubated for 30 min at about 25° C. with shaking. Reactions were terminated by rapid filtration onto 96-well Unifilter GF/B filter plates (Perkin Elmer, Shelton, Conn.) using a 96-well tissue harvester (Perkin Elmer, Shelton, Conn.) followed by three filtration washes with 200 μl of ice-cold wash buffer (10 mM NaH2PO4, 10 mM Na2HPO4, pH 7.4). Filter plates were subsequently dried at 50° C. for 2-3 hr. BetaScint scintillation cocktail (Perkin Elmer, Shelton, Conn.) was added (50 μl/well) and plates were counted using a Packard Top-Count for 1 min/well. Data were analyzed using the sigmoidal dose-response curve fitting functions in GraphPad PRISM v. 3.0, or an in-house function for non-linear, sigmoidal dose-response curve-fitting.
μ GTP EC50 is the concentration of a compound providing 50% of the maximal response for the compound at a μ-opioid receptor.
μ GTP Emax (%) is the maximal effect elicited by a compound relative to the effect elicited by DAMGO, a standard agonist. Generally, the μ GTP Emax (%) value measures the efficacy of a compound to treat or prevent pain or other Conditions.
as §1

μ-opioid receptor, sequence (P35372 whole entry, species assumed): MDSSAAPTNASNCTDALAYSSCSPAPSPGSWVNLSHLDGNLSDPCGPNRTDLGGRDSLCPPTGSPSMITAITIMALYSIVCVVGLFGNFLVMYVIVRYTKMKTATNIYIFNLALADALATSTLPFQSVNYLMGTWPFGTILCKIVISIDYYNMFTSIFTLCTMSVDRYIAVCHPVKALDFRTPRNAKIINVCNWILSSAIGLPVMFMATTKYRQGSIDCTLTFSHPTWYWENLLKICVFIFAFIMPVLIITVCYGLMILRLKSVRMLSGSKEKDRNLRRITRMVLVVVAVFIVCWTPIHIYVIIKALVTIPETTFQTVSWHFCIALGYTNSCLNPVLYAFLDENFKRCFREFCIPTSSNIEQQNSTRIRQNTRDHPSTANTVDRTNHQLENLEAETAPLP
human κ opioid receptor, sequence (P41145 whole entry): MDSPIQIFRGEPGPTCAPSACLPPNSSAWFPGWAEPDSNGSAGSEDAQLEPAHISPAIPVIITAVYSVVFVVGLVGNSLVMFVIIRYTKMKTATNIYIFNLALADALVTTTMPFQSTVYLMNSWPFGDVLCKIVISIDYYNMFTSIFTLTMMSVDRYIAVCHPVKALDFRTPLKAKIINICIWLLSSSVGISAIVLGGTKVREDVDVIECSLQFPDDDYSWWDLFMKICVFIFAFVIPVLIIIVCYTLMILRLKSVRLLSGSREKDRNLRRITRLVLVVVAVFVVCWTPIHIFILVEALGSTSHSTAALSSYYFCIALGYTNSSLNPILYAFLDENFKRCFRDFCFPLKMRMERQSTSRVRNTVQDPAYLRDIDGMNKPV

Turning to `COc1ccc2c(c1)[C@@]13CCC(=O)C[C@@]1(O)[C@@H](C2)N(CC1CC1)CC3` [Compound 31, (4bS,8aS,9R)-11-(cyclopropylmethyl)-8a-hydroxy-3-methoxy-5,6,8,8a,9,10-hexahydro-7H-9,4b-(epiminoethano)phenanthren-7-one], in test [1], the EC50 is 633 ± 87.1 nM and the Emax came out at 108 ± 3.76%. For the same compound, in test [2], the response was half-maximal at 740 ± 49.5 nM (EC50) and the Emax turned out to be 57.3 ± 2.73%.

As to `N=C(N)NCCN[C@H]1CC[C@]23CCN(CC4CC4)[C@H](Cc4ccc(O)cc42)[C@]3(O)C1` [Compound 32, 1-(2-(((4bS,7S,8aS,9R)-11-(cyclopropylmethyl)-3,8a-dihydroxy-6,7,8,8a,9,10-hexahydro-5H-9,4b-(epiminoethano)phenanthren-7-yl)amino)ethyl)guanidine], the EC50 in test [1] and in test [2] was greater than 20000 nM in each case. Further, the results for the Emax in test [1] and in test [2] were -1% and 5.33 ± 1.45%, respectively.

For the compound `COc1ccc2c(c1)[C@]13CCN(CC4CC4)[C@H](C2)[C@]1(O)C[C@@H](NCC(C)C)[C@@H](O)C3` [Compound 33, (4bR,6S,7R,8aS,9R)-11-(cyclopropylmethyl)-7-(isobutylamino)-3-methoxy-5,6,7,8,9,10-hexahydro-8aH-9,4b-(epiminoethano)phenanthrene-6,8a-diol], the figures for the concentration giving a half-maximal response (EC50) in test [1] and in test [2] were 328 ± 22.1 nM and 503 ± 43.5 nM, respectively. Further, the Emax was determined as 93.7 ± 1.76% in test [1] and 43 ± 3.79% in test [2].

Take `CN[C@@H]1C[C@@]2(O)[C@H]3Cc4ccc(O)cc4[C@@]2(CCN3CC2CC2)C[C@@H]1O` [Compound 35, (4bR,6S,7R,8aS,9R)-11-(cyclopropylmethyl)-7-(methylamino)-5,6,7,8,9,10-hexahydro-8aH-9,4b-(epiminoethano)phenanthrene-3,6,8a-triol]: the EC50 in test [1] is 0.2 ± 0.042 nM; in test [2] it was 2.55 ± 0.33 nM. In addition, the values for the Emax in test [1] and in test [2] were 97.3 ± 2.85% and 25.7 ± 0.88%, respectively.

As for `Oc1ccc2c(c1)[C@]13CCN(CC4CC4)[C@H](C2)[C@]1(O)C[C@@H](NCc1ccccc1)[C@@H](O)C3` [Compound 36, (4bR,6S,7R,8aS,9R)-7-(benzylamino)-11-(cyclopropylmethyl)-5,6,7,8,9,10-hexahydro-8aH-9,4b-(epiminoethano)phenanthrene-3,6,8a-triol], in test [1], the EC50 amounted to 0.34 ± 0.033 nM and the Emax is 62 ± 3.06%. Besides, in test [2], the EC50 was determined as 2.36 ± 0.64 nM and the Emax is 24.3 ± 0.88%.

Consider `Oc1ccc2c(c1)[C@]13CCN(CC4CC4)[C@H](C2)[C@]1(O)C[C@@H](NCc1ccccc1)[C@H](O)C3` [Compound 37, (4bR,6R,7R,8aS,9R)-7-(benzylamino)-11-(cyclopropylmethyl)-5,6,7,8,9,10-hexahydro-8aH-9,4b-(epiminoethano)phenanthrene-3,6,8a-triol], for which the EC50 amounted to 0.5 ± 0.039 nM in test [1] and 3.35 ± 0.41 nM in test [2]. Moreover, the Emax in test [1] is 87.7 ± 2.19%; in test [2], 24.3 ± 0.88%.

Regarding `Oc1ccc2c(c1)[C@]13CCN(CC4CC4)[C@H](C2)[C@]1(O)C[C@@H](N1CCCC1)[C@@H](O)C3` [Compound 38, (4bR,6S,7R,8aS,9R)-11-(cyclopropylmethyl)-7-(pyrrolidin-1-yl)-5,6,7,8,9,10-hexahydro-8aH-9,4b-(epiminoethano)phenanthrene-3,6,8a-triol], in test [1], it took 0.33 ± 0.022 nM to reach a half-maximal effect (EC50) and the Emax amounted to 80 ± 3.79%. In addition, in test [2], the EC50 turned out to be 1.27 ± 0.19 nM and the Emax was found to be 23.3 ± 1.86%.

Regarding `Oc1ccc2c(c1)[C@]13CCN(CC4CC4)[C@H](C2)[C@]1(O)C[C@@H](N1CCOCC1)[C@@H](O)C3` [Compound 39, (4bR,6S,7R,8aS,9R)-11-(cyclopropylmethyl)-7-morpholino-5,6,7,8,9,10-hexahydro-8aH-9,4b-(epiminoethano)phenanthrene-3,6,8a-triol], in test [1], the EC50 is greater than 20000 nM and the Emax was 1%. In test [2], the EC50 was greater than 20000 nM and the Emax was found to be 2%.

Turning to `O=C(O)CN[C@@H]1C[C@@]2(O)[C@H]3Cc4ccc(O)cc4[C@@]2(CCN3CC2CC2)C[C@@H]1O` [Compound 40, ((4bR,6S,7R,8aS,9R)-11-(cyclopropylmethyl)-3,6,8a-trihydroxy-6,7,8,8a,9,10-hexahydro-5H-9,4b-(epiminoethano)phenanthren-7-yl)glycine], in test [1], the EC50 is 7.24 ± 0.65 nM and the Emax came to 43 ± 3.06%. Besides, in test [2], the EC50 is greater than 20000 nM and the Emax was 2%.

For the compound `COc1ccc2c(c1)[C@@]13CC[C@H](NCC(C)C)C[C@@]1(O)[C@@H](C2)N(CC1CC1)CC3` [Compound 41, (4bS,7S,8aS,9R)-11-(cyclopropylmethyl)-7-(isobutylamino)-3-methoxy-5,6,7,8,9,10-hexahydro-8aH-9,4b-(epiminoethano)phenanthren-8a-ol], in test [1], the response was half-maximal at 41.6 ± 2.25 nM (EC50) and the Emax was 102 ± 2.19%. Further, in test [2], the EC50 worked out at 674 ± 63.8 nM and the Emax came out at 74.7 ± 4.67%.

Regarding `CC(=O)N[C@H]1CC[C@]23CCN(CC4CC4)[C@H](Cc4ccc(O)cc42)[C@]3(O)C1` [Compound 47, N-((4bS,7S,8aS,9R)-11-(cyclopropylmethyl)-3,8a-dihydroxy-6,7,8,8a,9,10-hexahydro-5H-9,4b-(epiminoethano)phenanthren-7-yl)acetamide], in test [1], the response was half-maximal at 0.14 ± 0.027 nM (EC50) and the Emax is 105 ± 1.76%. For the same compound, in test [2], the EC50 came to 0.61 ± 0.17 nM and the Emax was 44 ± 1.73%.

As for `COc1ccc2c(c1)[C@]13CCN(CC4CC4)[C@H](C2)[C@]1(O)C[C@H](NC(=O)C(C)C)C(O)C3` (stereo partly drawn) [Compound 49, N-((4bR,7S,8aS,9R)-11-(cyclopropylmethyl)-6,8a-dihydroxy-3-methoxy-6,7,8,8a,9,10-hexahydro-5H-9,4b-(epiminoethano)phenanthren-7-yl)isobutyramide], in test [1], it took 7940 nM to reach a half-maximal effect (EC50) and the Emax turned out to be 90.3 ± 1.67%. Further, in test [2], it took 8460 nM to reach a half-maximal effect (EC50) and the Emax was 27 ± 1.53%.

For the compound `COc1ccc2c(c1)[C@]13CCN(CC4CC4)[C@H](C2)[C@]1(O)C[C@H](OCC(C)C)[C@H](O)C3` [Compound 51, (4bR,6R,7S,8aS,9R)-11-(cyclopropylmethyl)-7-isobutoxy-3-methoxy-5,6,7,8,9,10-hexahydro-8aH-9,4b-(epiminoethano)phenanthrene-6,8a-diol], the values for the EC50 in test [1] and in test [2] were 14500 ± 1680 nM and greater than 20000 nM, respectively. The Emax in test [1] was found to be 86.7 ± 3.18%; in test [2] it was 7%.

For `COc1ccc2c(c1)[C@@]13CC[C@@H](O)C[C@@]1(O)[C@@H](C2)N(CC1CC1)CC3` [Compound 52, (4bS,7R,8aS,9R)-11-(cyclopropylmethyl)-3-methoxy-5,6,7,8,9,10-hexahydro-8aH-9,4b-(epiminoethano)phenanthrene-7,8a-diol], in test [1], the EC50 was determined as 1570 ± 97.4 nM and the Emax stood at 91.3 ± 0.67%. In test [2], the concentration for a half-maximal effect (EC50) is 1260 nM and the Emax stood at 23.2 ± 4.07%.

In the case of `CCC(C)C[C@H]1C[C@@]2(O)[C@H]3Cc4ccc(O)cc4[C@@]2(CCN3CC2CC2)C[C@H]1O` (stereo partly drawn) [Compound 53, (4bR,6R,7S,8aS,9R)-11-(cyclopropylmethyl)-7-(2-methylbutyl)-5,6,7,8,9,10-hexahydro-8aH-9,4b-(epiminoethano)phenanthrene-3,6,8a-triol], in test [1], the EC50 stood at 73.8 ± 11.8 nM and the Emax was 62 ± 1.53%. Besides, in test [2], the EC50 is greater than 20000 nM and the Emax is 3%.

As usually defined, the EC50 is the midpoint of the concentration-response curve. Higher therefore signals a less potent agent. In general, Emax refers to the maximal effect, on the per cent scale that the assay sets.
